In publication PMC10861299, “A Systematic Survey of Reversibly Covalent Dipeptidyl Inhibitors of the SARS-CoV-2 Main Protease” (Journal of Medicinal Chemistry, 2023):
Where two headings read alike, the source gives them in different places.

How the values were obtained:
[1] = target: SARS-CoV-2 main protease (M^Pro) (Severe acute respiratory syndrome coronavirus 2, UniProt P0DTD1); experiment: In vitro M^Pro enzymatic inhibition with fluorogenic substrate Sub3; format: biochemical
[2] = tested on: SARS-CoV-2 (USA-WA1/2020); experiment: Plaque reduction neutralization test in Vero E6 cells; format: cell-based; conditions: SARS-CoV-2 USA-WA1/2020, Vero E6 cells, 3 days, read-out: Antiviral EC50
[3] = target: M^Pro-eGFP fusion protein in 293T cells (Severe acute respiratory syndrome coronavirus 2, UniProt P0DTD1); experiment: cell-based; design: species or system SARS-CoV-2
[4] = In vitro metabolic stability in human liver microsomes; conditions: pH 7.4
[5] = Cytotoxicity, MTT assay; format: cell-based; conditions: human, HEK293T cells, 293T cells
Experimental: Because of their high antiviral potency, MPI60 and MPI61 were advanced to characterizations of cytotoxicity and in vitro metabolic stability. For the cytotoxicity characterization, we used 293T cells and the MTT assay.[42] […] These CC50 values are similar to that of nirmatrelvir and lead to high calculated selectivity indices (CC50/antiviral EC50) for both compounds. The in vitro metabolic stability analysis for MPI60 and MPI61 was conducted using human liver microsomes.
HEK293T cells were seeded in 96-well plates and incubated at 37 °C and 5% CO2 for 24 h. The cells were then treated with different concentrations (200, 100, 50, 25, 12.5, 6.25, 3.125, 1.5625, 0.78125, and 0 μM) of the tested compound in triplicate for 48 h. Cell viability was assessed by the MTT assay to determine CC50. For the MTT assay, 20 μL MTT (5 mg/mL) was added to each well and incubated with cells for 4 h. After that, the supernatant was removed, and 200 μL DMSO was added per well. The absorbance was recorded at 490 nm. The CC50 value was determined by plotting the normalized cell viability (%) against the compound concentration.
Figure S5. Cytotoxicity curves of MPI60 and MPI61 in 293T cells tested by the MTT assay.
(1 picture or pasted object on this page, not shown here)

[6] = 20 nM M^Pro, 10 μM Sub3, 30 min preincubation, read-out: Enzymatic IC50
[7] = Severe acute respiratory syndrome coronavirus 2, Vero C1008, 72 h
[8] = read-out: IC50 (M^Pro enzymatic inhibition)

Structure (SMILES): O=C[C@H](C[C@@H]1CCNC1=O)NC(=O)[C@@H]1CC2(CC2)CN1C(=O)OCc1ccccc1 [MPI58, Benzyl (S)-6-(((S)-1-oxo-3-((S)-2-oxopyrrolidin-3-yl)propan-2yl)carbamoyl)-5-azaspiro[2,4]heptane-5-carboxylate]
- IC50 [1, 6]: 0.025 µM
- EC50 [2, 7]: 3.6 µM
- EC50 ([3]; read-out: Cellular EC50): 0.66 µM

Structure (SMILES): CC(C)(C)OC(=O)N1CC2(CCC2)C[C@H]1C(=O)N[C@H](C=O)C[C@@H]1CCNC1=O [YR-B-101, tert-Butyl-(S)-7-(((S)-1-oxo-3-((S)-2-oxopyrrolidin-3-yl)propan-2-yl)carbamoyl)-6-azaspiro[3.4]octane-6-carboxylate]
- IC50 [1, 6]: > 5 µM

Structure (SMILES): CC(C)(C)C[C@H](NC(=O)OCc1ccccc1)C(=O)N[C@H](C=O)C[C@@H]1CCNC1=O [MPI50, Benzyl ((S)-4,4-Dimethyl-1-oxo-1-(((S)-1-oxo-3-((S)-2-oxopyrrolidin-3-yl)propan-2-yl)amino)pentan-2-yl)carbamate]
- IC50 [1, 6]: 0.053 µM
- EC50 [2]: 0.75 µM
- EC50 [2, 7]: < 1 µM
- EC50 ([3]; read-out: Cellular EC50): 0.73 µM

Structure (SMILES): O=C[C@H](C[C@@H]1CCNC1=O)NC(=O)[C@H](CC1CCCCC1)NC(=O)OCc1cccc(Cl)c1 [MPI52, 3-Chlorobenzyl ((S)-3-Cyclohexyl-1-oxo-1-(((S)-1-oxo-3-((S)-2-oxopyrrolidin-3-yl)propan-2-yl)amino)propan-2-yl)carbamate]
- IC50 [1, 6]: 0.11 µM
- EC50 [2, 7]: 2.6 µM
- EC50 ([3]; read-out: Cellular EC50): 0.59 µM

Structure (SMILES): COc1cccc2[nH]c(C(=O)N3CC4(CCCC4)CC3C(=O)N[C@H](C#N)C[C@@H]3CCCNC3=O)cc12 (stereo partly drawn) [MPI66-4, N-((S)-1-Cyano-2-((S)-2-oxopiperidin-3-yl)ethyl)-2-(4-methoxy-1H-indole-2-carbonyl)-2-azaspiro[4.4]nonane-3-carboxamide]
- IC50 [1, 6]: 6 µM

Structure (SMILES): COc1cccc2[nH]c(C(=O)N3CC4(CCCC4)CC3C(=O)N[C@H](C=O)C[C@@H]3CCNC3=O)cc12 (stereo partly drawn) [MPI66-3, 2-(4-Methoxy-1H-indole-2-carbonyl)-N-((S)-1-oxo-3-((S)-2-oxopyrrolidin-3-yl)propan-2-yl)-2-azaspiro[4.4]nonane-3-carboxamide]
- IC50 [1, 6]: 1.5 µM

Structure (SMILES): N#C[C@H](C[C@@H]1CCNC1=O)NC(=O)C1CC2(CCCCC2)CN1C(=O)OCc1ccccc1 (stereo partly drawn) [MPI67, Benzyl 3-(((S)-1-Cyano-2-((S)-2-oxopyrrolidin-3-yl)ethyl)carbamoyl)-2-azaspiro[4.5]decane-2-carboxylate]
- IC50 [1, 6]: 1.4 µM

Structure (SMILES): CC(C)(C)O[C@@H]1C[C@@H](C(=O)N[C@H](C=O)C[C@@H]2CCNC2=O)N(C(=O)OCc2ccccc2)C1 [MPI55]
- IC50 [1, 6]: 0.56 µM

Structure (SMILES): O=C[C@H](C[C@@H]1CCNC1=O)NC(=O)[C@@H]1CC2(CCC2)CN1C(=O)OCc1ccccc1 [MPI59, Benzyl (S)-7-(((S)-1-Oxo-3-((S)-2-oxopyrrolidin-3-yl)propan-2-yl)carbamoyl)-6-azaspiro[3.4]octane-6-carboxylate]
- IC50 [1, 6]: 0.03 µM
- EC50 [2]: 0.56 µM
- EC50 [2, 7]: < 1 µM
- EC50 ([3]; read-out: Cellular EC50): 0.43 µM

Structure (SMILES): N#C[C@H](C[C@@H]1CCNC1=O)NC(=O)C1CC2(CCCC2)CN1C(=O)OCc1cccc(Cl)c1 (stereo partly drawn) [MPI66-2, 3-Chlorobenzyl 3-(((S)-1-Cyano-2-((S)-2-oxopyrrolidin-3-yl)ethyl)carbamoyl)-2-azaspiro[4.4]nonane-2-carboxylate]
- IC50 [1, 6]: 3.6 µM

Structure (SMILES): O=C[C@H](C[C@@H]1CCNC1=O)NC(=O)C1CC2(CCCC2)CN1C(=O)OCc1ccccc1 (stereo partly drawn) [MPI60, Benzyl 3-(((S)-1-Oxo-3-((S)-2-oxopyrrolidin-3-yl)propan-2-yl)carbamoyl)-2-azaspiro[4.4]nonane-2-carboxylate]
- CLint scaled at 5 μM [4]: 0.96 L/h/kg
- half-life at 5 μM [4]: 1.82 h
- IC50 [1, 6]: 0.022 µM
- CC50 at 48 h [5]: 95 µM
- EC50 ([3]; read-out: Cellular EC50): 0.088 µM
- EC50 ([3]; read-out: cellular EC50): < 0.1 µM

Structure (SMILES): CC1(C)[C@@H]2[C@@H](C(=O)N[C@H](C=O)C[C@@H]3CCNC3=O)N(C(=O)COC3CCCCC3)C[C@@H]21 [MPI64, (1R,2S,5S)-3-(2-(Cyclohexyloxy)acetyl)-6,6-dimethyl-N-((S)-1-oxo-3-((S)-2-oxopyrrolidin-3-yl)propan-2-yl)-3-azabicyclo[3.1.0]hexane-2-carboxamide]
- IC50 [1, 6]: 0.025 µM
- EC50 ([3]; read-out: Cellular EC50): 3.6 µM

Structure (SMILES): CC1(C)[C@@H]2[C@@H](C(=O)N[C@H](C=O)C[C@@H]3CCNC3=O)N(C(=O)CCC3CCCCC3)C[C@@H]21 [MPI65, (1R,2S,5S)-3-(3-Cyclohexylpropanoyl)-6,6-dimethyl-N-((S)-1-oxo-3-((S)-2-oxopyrrolidin-3-yl)propan-2-yl)-3-azabicyclo[3.1.0]hexane-2-carboxamide]
- IC50 [1, 6]: 0.041 µM
- EC50 [2]: 0.96 µM
- EC50 [2, 7]: < 1 µM
- EC50 ([3]; read-out: Cellular EC50): 0.56 µM

Structure (SMILES): COc1cccc2[nH]c(C(=O)N[C@@H](CC(C)(C)C)C(=O)N[C@H](C=O)C[C@@H]3CCNC3=O)cc12 [MPI49, N-((S)-4,4-Dimethyl-1-oxo-1-(((S)-1-oxo-3-((S)-2-oxopyrrolidin-3-yl)propan-2-yl)amino)pentan-2-yl)-4-methoxy-1H-indole-2-carboxamide]
- IC50 [1, 6]: 0.074 µM
- EC50 [2, 7]: 1.3 µM
- EC50 ([3]; read-out: Cellular EC50): 0.91 µM

Structure (SMILES): N#C[C@H](C[C@@H]1CCNC1=O)NC(=O)C1CC2(CCCC2)CN1C(=O)OCc1ccccc1 (stereo partly drawn) [MPI66-1, Benzyl 3-(((S)-1-Cyano-2-((S)-2-oxopyrrolidin-3-yl)ethyl)carbamoyl)-2-azaspiro[4.4]nonane-2-carboxylate]
- IC50 [1, 6]: 2.2 µM

Structure (SMILES): O=C[C@H](C[C@@H]1CCNC1=O)NC(=O)[C@H](CC1CCCCC1)NC(=O)OCc1ccccc1 [MPI51, Benzyl ((S)-3-Cyclohexyl-1-oxo-1-(((S)-1-oxo-3-((S)-2-oxopyrrolidin-3-yl)propan-2-yl)amino)propan-2-yl)carbamate]
- IC50 [1, 6]: 0.056 µM
- EC50 [2, 7]: 6.7 µM
- EC50 ([3]; read-out: Cellular EC50): 0.77 µM

Structure (SMILES): CC1(C)[C@@H]2[C@@H](C(=O)NC(C=O)CC3CCNC3=O)N(C(=O)OCc3ccccc3)C[C@@H]21 (stereo partly drawn) [MPI57, Benzyl (1R,2S,5S)-6,6-Dimethyl-2-((1-oxo-3-(2-oxopyrrolidin-3-yl)propan-2-yl)carbamoyl)-3-azabicyclo[3.1.0]hexane-3-carboxylate]
- EC50 [2, 7]: 1.5 µM

Structure (SMILES): O=C[C@H](C[C@@H]1CCNC1=O)NC(=O)[C@@H]1C[C@@H](C2CCCCC2)CN1C(=O)OCc1ccccc1 [MPI56, (2S,4S)-Benzyl 4-Cyclohexyl-2-(((S)-1-oxo-3-((S)-2-oxopyrrolidin-3-yl)propan-2-yl)carbamoyl)pyrrolidine-1-carboxylate]
- IC50 [1, 6]: 0.51 µM

Structure (SMILES): CC1(C)[C@@H]2[C@@H](C(=O)N[C@H](C=O)C[C@@H]3CCNC3=O)N(C(=O)CNc3ccc(Cl)cc3)C[C@@H]21 [MPI62, (1R,2S,5S)-3-((4-Chlorophenyl)glycyl)-6,6-dimethyl-N-((S)-1-oxo-3-((S)-2-oxopyrrolidin-3-yl)propan-2-yl)-3-azabicyclo[3.1.0]hexane-2-carboxamide]
- IC50 [1, 6]: 0.99 µM

Structure (SMILES): CC(C)(C)C[C@H](NC(=O)c1cc2ccccc2[nH]1)C(=O)N[C@H](C=O)C[C@@H]1CCNC1=O [MPI48, N-((S)-4,4-Dimethyl-1-oxo-1-(((S)-1-oxo-3-((S)-2-oxopyrrolidin-3-yl)propan-2-yl)amino)pentan-2-yl)-1H-indole-2-carboxamide]
- IC50 [1, 6]: 0.029 µM
- EC50 ([3]; read-out: Cellular EC50): 1.6 µM

Structure (SMILES): CC(=O)Oc1cccc(COC(=O)N[C@@H](CC2CCCCC2)C(=O)N[C@H](C=O)C[C@@H]2CCNC2=O)c1 [MPI53, 3-(((((S)-3-Cyclohexyl-1-oxo-1-(((S)-1-oxo-3-((S)-2-oxopyrrolidin-3-yl)propan-2-yl)amino)propan-2-yl)carbamoyl)oxy)methyl)phenyl Acetate]
- IC50 [1, 6]: 0.098 µM
- EC50 ([3]; read-out: Cellular EC50): 3.5 µM

Structure (SMILES): O=C[C@H](C[C@@H]1CCNC1=O)NC(=O)[C@@H]1[C@H]2CCC[C@H]2CN1C(=O)COc1ccc(Cl)c(Cl)c1 [MI-31, (1S,3aR,6aS)-2-(2-(3,4-Dichlorophenoxy)acetyl)-N-((S)-1-oxo-3-((S)-2-oxopyrrolidin-3-yl)propan-2-yl)octahydrocyclopenta[c]pyrrole-1-carboxamide, reference compound]
- IC50 [1, 6]: 0.042 µM
- IC50 [1, 8]: ≤ 0.05 µM
- EC50 ([3]; read-out: Cellular EC50): 2.7 µM

Structure (SMILES): O=C[C@H](C[C@@H]1CCNC1=O)NC(=O)[C@@H]1CC2(CC2)CN1C(=O)COc1ccc(Cl)cc1Cl [MPI63, (S)-5-(2-(2,4-Dichlorophenoxy)acetyl)-N-((S)-1-oxo-3-((S)-2-oxopyrrolidin-3-yl)propan-2-yl)-5-azaspiro[2.4]heptane-6-carboxamide]
- IC50 [1, 6]: 0.039 µM
- EC50 ([3]; read-out: Cellular EC50): 2.9 µM

Structure (SMILES): CC1(C)[C@@H]2[C@@H](C(=O)N[C@H](C=O)C[C@@H]3CCNC3=O)N(C(=O)COc3ccc(Cl)cc3Cl)C[C@@H]21 [MI-14, (1R,2S,5S)-3-(2-(2,4-Dichlorophenoxy)acetyl)-6,6-dimethyl-N-((S)-1-oxo-3-((S)-2-oxopyrrolidin-3-yl)propan-2-yl)-3-azabicyclo[3.1.0]hexane-2-carboxamide, reference compound]
- IC50 [1, 6]: 0.028 µM
- IC50 [1, 8]: ≤ 0.05 µM
- EC50 ([3]; read-out: Cellular EC50): 0.28 µM
